Source: ChEMBL document CHEMBL1139978, “Synthesis and radiopharmacological characterization of [11C]AL-438 as a nonsteroidal ligand for imaging brain glucocorticoid receptors” (Bioorg Med Chem Lett, 2007)
pEC50: −log10 of the molar value.

Key:
Glucocorticoid receptor = biological target: T1, Glucocorticoid receptor (Rattus norvegicus, UniProt P06536); experiment: Binding affinity to rat glucocorticoid receptor
T1 sequence (P06536 whole entry): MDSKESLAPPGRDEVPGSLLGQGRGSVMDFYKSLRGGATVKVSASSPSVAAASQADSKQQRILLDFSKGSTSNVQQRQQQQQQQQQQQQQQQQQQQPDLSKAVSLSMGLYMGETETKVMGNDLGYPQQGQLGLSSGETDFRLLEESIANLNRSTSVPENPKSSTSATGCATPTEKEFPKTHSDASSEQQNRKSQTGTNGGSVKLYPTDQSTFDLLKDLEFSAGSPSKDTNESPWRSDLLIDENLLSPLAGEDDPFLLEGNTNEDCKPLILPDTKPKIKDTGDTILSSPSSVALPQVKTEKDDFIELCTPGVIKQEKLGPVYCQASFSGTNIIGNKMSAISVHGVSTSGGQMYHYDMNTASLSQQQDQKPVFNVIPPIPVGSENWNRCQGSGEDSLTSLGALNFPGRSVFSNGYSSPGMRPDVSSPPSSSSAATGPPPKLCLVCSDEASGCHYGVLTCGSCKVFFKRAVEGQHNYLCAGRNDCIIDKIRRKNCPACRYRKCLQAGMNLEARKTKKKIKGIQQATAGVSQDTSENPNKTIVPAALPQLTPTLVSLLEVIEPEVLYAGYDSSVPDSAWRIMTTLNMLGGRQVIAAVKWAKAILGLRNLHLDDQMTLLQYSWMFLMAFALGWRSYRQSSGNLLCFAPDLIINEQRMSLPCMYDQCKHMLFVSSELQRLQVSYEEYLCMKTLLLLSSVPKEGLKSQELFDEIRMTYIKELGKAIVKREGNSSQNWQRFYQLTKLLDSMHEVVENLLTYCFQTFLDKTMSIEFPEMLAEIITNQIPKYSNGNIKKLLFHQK

Progesterone receptor = Progesterone receptor (Rattus norvegicus, UniProt Q63449); experiment: Binding affinity to progesterone receptor
Sequence of Progesterone receptor (Q63449 whole entry): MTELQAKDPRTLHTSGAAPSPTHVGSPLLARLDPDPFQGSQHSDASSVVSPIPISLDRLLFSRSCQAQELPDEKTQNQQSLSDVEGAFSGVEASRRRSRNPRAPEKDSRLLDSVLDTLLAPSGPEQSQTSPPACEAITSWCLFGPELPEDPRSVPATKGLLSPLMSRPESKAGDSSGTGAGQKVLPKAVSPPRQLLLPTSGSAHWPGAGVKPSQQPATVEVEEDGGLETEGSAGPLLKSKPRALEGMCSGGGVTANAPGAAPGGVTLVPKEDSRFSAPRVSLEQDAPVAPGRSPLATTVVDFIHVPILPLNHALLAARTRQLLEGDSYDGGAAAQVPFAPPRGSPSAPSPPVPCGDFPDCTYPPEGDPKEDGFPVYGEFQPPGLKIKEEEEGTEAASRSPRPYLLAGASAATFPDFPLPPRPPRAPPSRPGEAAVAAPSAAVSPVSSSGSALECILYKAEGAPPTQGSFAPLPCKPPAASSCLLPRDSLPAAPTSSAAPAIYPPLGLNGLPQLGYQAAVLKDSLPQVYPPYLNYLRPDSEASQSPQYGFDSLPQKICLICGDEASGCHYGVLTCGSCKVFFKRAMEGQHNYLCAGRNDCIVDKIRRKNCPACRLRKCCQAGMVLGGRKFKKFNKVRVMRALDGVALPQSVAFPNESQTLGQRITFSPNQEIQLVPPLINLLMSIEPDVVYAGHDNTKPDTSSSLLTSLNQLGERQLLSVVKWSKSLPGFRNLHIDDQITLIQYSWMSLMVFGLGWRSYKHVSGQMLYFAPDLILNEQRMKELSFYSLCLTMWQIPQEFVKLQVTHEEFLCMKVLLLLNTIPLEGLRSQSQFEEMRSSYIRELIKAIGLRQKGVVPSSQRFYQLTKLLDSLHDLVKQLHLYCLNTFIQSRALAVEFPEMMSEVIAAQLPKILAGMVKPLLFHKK

C=CCC1Oc2cccc(OC)c2-c2ccc3c(c21)C(C)=CC(C)(C)N3 (configuration not stated) [AL-43]
pEC50 (Glucocorticoid receptor): 8.10
pEC50 (Progesterone receptor): 6.90
